Laboratory results as given in the NIST ThermoML archive (doi:10.1016/j.jct.2006.10.016).
Where “and” joins values, the source holds several entries; their conditions need not be identical. Equal values may be shown once. Numbers after ± are expanded uncertainties.

Tests used:
[1] = 101 kPa, Liquid
[2] = xn = mol fraction of the nth substance listed; settings: 101 kPa, Liquid

For `C[S+](C)[O-]` [dimethyl sulfoxide], the mass density ([1]; 303.15 K) was 1090.7 ± 2.9 kg/m3, the viscosity ([1]; 303.15 K) was 1.832 ± 0.082 mPa·s and the mass density ([1]; 308.15 K) was 1084.7 ± 3 kg/m3. For the same compound, the viscosity ([1]; 308.15 K) was 1.67 ± 0.076 mPa·s, the mass density ([1]; 313.15 K) was 1082.3 ± 3.2 kg/m3 and the viscosity ([1]; 313.15 K) was 1.537 ± 0.07 mPa·s. For the same compound, the mass density ([1]; 318.15 K) was 1075.1 ± 3.2 kg/m3, the viscosity ([1]; 318.15 K) was 1.408 ± 0.065 mPa·s and the mass density ([1]; 323.15 K) was 1070.1 ± 3.4 kg/m3 and 1070 ± 3.4 kg/m3. The viscosity ([1]; 323.15 K) was 1.289 ± 0.06 mPa·s.

`CCO` [ethanol] gave a mass density ([1]; 303.15 K) of 783.4 ± 2 kg/m3, a viscosity ([1]; 303.15 K) of 1.086 ± 0.051 mPa·s and a mass density ([1]; 308.15 K) of 779 ± 2.1 kg/m3. For the same compound, the viscosity ([1]; 308.15 K) was 0.9732 ± 0.047 mPa·s, the mass density ([1]; 313.15 K) was 774.6 ± 2.2 kg/m3 and the viscosity ([1]; 313.15 K) was 0.8596 ± 0.042 mPa·s. For the same compound, the mass density ([1]; 318.15 K) was 769.8 ± 2.3 kg/m3, the viscosity ([1]; 318.15 K) was 0.8284 ± 0.041 mPa·s and the mass density ([1]; 323.15 K) was 766.1 ± 2.4 kg/m3. For the same compound, the viscosity ([1]; 323.15 K) was 0.7493 ± 0.037 mPa·s.

Compound `CC(C)O` [propan-2-ol] has a mass density ([1]; 303.15 K) of 776.4 ± 1.9 kg/m3, a viscosity ([1]; 303.15 K) of 1.792 ± 0.081 mPa·s and a mass density ([1]; 308.15 K) of 772.6 ± 2 kg/m3. It also gave a viscosity ([1]; 308.15 K) of 1.553 ± 0.071 mPa·s, a mass density ([1]; 313.15 K) of 768.6 ± 2.1 kg/m3 and a viscosity ([1]; 313.15 K) of 1.355 ± 0.062 mPa·s. It also gave a mass density ([1]; 318.15 K) of 763.9 ± 2.3 kg/m3, a viscosity ([1]; 318.15 K) of 1.182 ± 0.055 mPa·s and a mass density ([1]; 323.15 K) of 758.8 ± 2.4 kg/m3. The viscosity ([1]; 323.15 K) was 1.041 ± 0.049 mPa·s.

`C[S+](C)[O-]` [dimethyl sulfoxide] + CCCO gave a mass density ([2]; 303.15 K, x1 = 0.1003) of 824.3 ± 2.1 kg/m3, a viscosity ([2]; 303.15 K, x1 = 0.1003) of 1.598 ± 0.072 mPa·s and a mass density ([2]; 303.15 K, x1 = 0.1995) of 853.1 ± 2.2 kg/m3. It also gave a viscosity ([2]; 303.15 K, x1 = 0.1995) of 1.41 ± 0.065 mPa·s, a mass density ([2]; 303.15 K, x1 = 0.2999) of 881.4 ± 2.3 kg/m3 and a viscosity ([2]; 303.15 K, x1 = 0.2999) of 1.402 ± 0.064 mPa·s. The mass density ([2]; 303.15 K, x1 = 0.3994) was 910.1 ± 2.4 kg/m3, the viscosity ([2]; 303.15 K, x1 = 0.3994) was 1.393 ± 0.064 mPa·s and the mass density ([2]; 303.15 K, x1 = 0.5) was 938.7 ± 2.5 kg/m3. It also gave a viscosity ([2]; 303.15 K, x1 = 0.5) of 1.425 ± 0.065 mPa·s, a mass density ([2]; 303.15 K, x1 = 0.5995) of 968.1 ± 2.5 kg/m3 and a viscosity ([2]; 303.15 K, x1 = 0.5995) of 1.492 ± 0.068 mPa·s. It also gave a mass density ([2]; 303.15 K, x1 = 0.7002) of 998.2 ± 2.6 kg/m3, a viscosity ([2]; 303.15 K, x1 = 0.7002) of 1.532 ± 0.07 mPa·s and a mass density ([2]; 303.15 K, x1 = 0.7998) of 1027.6 ± 2.7 kg/m3. The viscosity ([2]; 303.15 K, x1 = 0.7998) was 1.593 ± 0.072 mPa·s, the mass density ([2]; 303.15 K, x1 = 0.9004) was 1059.4 ± 2.8 kg/m3 and the viscosity ([2]; 303.15 K, x1 = 0.9004) was 1.728 ± 0.078 mPa·s. The mass density ([2]; 303.15 K, x1 = 1) was 1090.7 ± 2.9 kg/m3, the viscosity ([2]; 303.15 K, x1 = 1) was 1.832 ± 0.082 mPa·s and the mass density ([2]; 308.15 K, x1 = 0.1003) was 820.3 ± 2.2 kg/m3. For the same compound, the viscosity ([2]; 308.15 K, x1 = 0.1003) was 1.436 ± 0.066 mPa·s, the mass density ([2]; 308.15 K, x1 = 0.1995) was 848.6 ± 2.3 kg/m3 and the viscosity ([2]; 308.15 K, x1 = 0.1995) was 1.278 ± 0.059 mPa·s. For the same compound, the mass density ([2]; 308.15 K, x1 = 0.2999) was 876.6 ± 2.4 kg/m3, the viscosity ([2]; 308.15 K, x1 = 0.2999) was 1.277 ± 0.059 mPa·s and the mass density ([2]; 308.15 K, x1 = 0.3994) was 905.3 ± 2.5 kg/m3. It also gave a viscosity ([2]; 308.15 K, x1 = 0.3994) of 1.273 ± 0.059 mPa·s, a mass density ([2]; 308.15 K, x1 = 0.5) of 933.4 ± 2.6 kg/m3 and a viscosity ([2]; 308.15 K, x1 = 0.5) of 1.31 ± 0.061 mPa·s. It also gave a mass density ([2]; 308.15 K, x1 = 0.5995) of 962.5 ± 2.6 kg/m3, a viscosity ([2]; 308.15 K, x1 = 0.5995) of 1.357 ± 0.063 mPa·s and a mass density ([2]; 308.15 K, x1 = 0.7002) of 992.2 ± 2.7 kg/m3. For the same compound, the viscosity ([2]; 308.15 K, x1 = 0.7002) was 1.4 ± 0.064 mPa·s, the mass density ([2]; 308.15 K, x1 = 0.7998) was 1021.6 ± 2.8 kg/m3 and the viscosity ([2]; 308.15 K, x1 = 0.7998) was 1.452 ± 0.067 mPa·s. For the same compound, the mass density ([2]; 308.15 K, x1 = 0.9004) was 1053 ± 2.9 kg/m3, the viscosity ([2]; 308.15 K, x1 = 0.9004) was 1.629 ± 0.074 mPa·s and the mass density ([2]; 308.15 K, x1 = 1) was 1084.7 ± 3 kg/m3. It also gave a viscosity ([2]; 308.15 K, x1 = 1) of 1.67 ± 0.076 mPa·s, a mass density ([2]; 313.15 K, x1 = 0.1003) of 816.5 ± 2.3 kg/m3 and a viscosity ([2]; 313.15 K, x1 = 0.1003) of 1.257 ± 0.058 mPa·s. For the same compound, the mass density ([2]; 313.15 K, x1 = 0.1995) was 844.8 ± 2.4 kg/m3, the viscosity ([2]; 313.15 K, x1 = 0.1995) was 1.163 ± 0.055 mPa·s and the mass density ([2]; 313.15 K, x1 = 0.2999) was 873.2 ± 2.5 kg/m3. It also gave a viscosity ([2]; 313.15 K, x1 = 0.2999) of 1.173 ± 0.055 mPa·s, a mass density ([2]; 313.15 K, x1 = 0.3994) of 901.7 ± 2.6 kg/m3 and a viscosity ([2]; 313.15 K, x1 = 0.3994) of 1.17 ± 0.055 mPa·s. For the same compound, the mass density ([2]; 313.15 K, x1 = 0.5) was 929.7 ± 2.7 kg/m3, the viscosity ([2]; 313.15 K, x1 = 0.5) was 1.207 ± 0.056 mPa·s and the mass density ([2]; 313.15 K, x1 = 0.5995) was 958.8 ± 2.8 kg/m3. The viscosity ([2]; 313.15 K, x1 = 0.5995) was 1.246 ± 0.058 mPa·s, the mass density ([2]; 313.15 K, x1 = 0.7002) was 988.8 ± 2.9 kg/m3 and the viscosity ([2]; 313.15 K, x1 = 0.7002) was 1.29 ± 0.06 mPa·s. It also gave a mass density ([2]; 313.15 K, x1 = 0.7998) of 1017.5 ± 2.9 kg/m3, a viscosity ([2]; 313.15 K, x1 = 0.7998) of 1.335 ± 0.062 mPa·s and a mass density ([2]; 313.15 K, x1 = 0.9004) of 1050 ± 3 kg/m3. It also gave a viscosity ([2]; 313.15 K, x1 = 0.9004) of 1.493 ± 0.068 mPa·s, a mass density ([2]; 313.15 K, x1 = 1) of 1082.3 ± 3.2 kg/m3 and a viscosity ([2]; 313.15 K, x1 = 1) of 1.537 ± 0.07 mPa·s. The mass density ([2]; 318.15 K, x1 = 0.1003) was 812.7 ± 2.4 kg/m3, the viscosity ([2]; 318.15 K, x1 = 0.1003) was 1.142 ± 0.054 mPa·s and the mass density ([2]; 318.15 K, x1 = 0.1995) was 840.8 ± 2.5 kg/m3. The viscosity ([2]; 318.15 K, x1 = 0.1995) was 1.066 ± 0.051 mPa·s, the mass density ([2]; 318.15 K, x1 = 0.2999) was 868.7 ± 2.6 kg/m3 and the viscosity ([2]; 318.15 K, x1 = 0.2999) was 1.078 ± 0.051 mPa·s. The mass density ([2]; 318.15 K, x1 = 0.3994) was 897.1 ± 2.7 kg/m3, the viscosity ([2]; 318.15 K, x1 = 0.3994) was 1.084 ± 0.051 mPa·s and the mass density ([2]; 318.15 K, x1 = 0.5) was 924.3 ± 2.8 kg/m3. For the same compound, the viscosity ([2]; 318.15 K, x1 = 0.5) was 1.11 ± 0.052 mPa·s, the mass density ([2]; 318.15 K, x1 = 0.5995) was 953.2 ± 2.9 kg/m3 and the viscosity ([2]; 318.15 K, x1 = 0.5995) was 1.148 ± 0.054 mPa·s. The mass density ([2]; 318.15 K, x1 = 0.7002) was 982.3 ± 3 kg/m3, the viscosity ([2]; 318.15 K, x1 = 0.7002) was 1.201 ± 0.056 mPa·s and the mass density ([2]; 318.15 K, x1 = 0.7998) was 1011 ± 3 kg/m3. It also gave a viscosity ([2]; 318.15 K, x1 = 0.7998) of 1.247 ± 0.058 mPa·s, a mass density ([2]; 318.15 K, x1 = 0.9004) of 1043 ± 3.1 kg/m3 and a viscosity ([2]; 318.15 K, x1 = 0.9004) of 1.361 ± 0.063 mPa·s. For the same compound, the mass density ([2]; 318.15 K, x1 = 1) was 1075.1 ± 3.2 kg/m3, the viscosity ([2]; 318.15 K, x1 = 1) was 1.408 ± 0.065 mPa·s and the mass density ([2]; 323.15 K, x1 = 0.1003) was 808.9 ± 2.5 kg/m3. The viscosity ([2]; 323.15 K, x1 = 0.1003) was 1.034 ± 0.049 mPa·s, the mass density ([2]; 323.15 K, x1 = 0.1995) was 836.8 ± 2.6 kg/m3 and the viscosity ([2]; 323.15 K, x1 = 0.1995) was 0.9724 ± 0.047 mPa·s. It also gave a mass density ([2]; 323.15 K, x1 = 0.2999) of 864.8 ± 2.7 kg/m3, a viscosity ([2]; 323.15 K, x1 = 0.2999) of 0.9878 ± 0.047 mPa·s and a mass density ([2]; 323.15 K, x1 = 0.3994) of 892.9 ± 2.8 kg/m3. It also gave a viscosity ([2]; 323.15 K, x1 = 0.3994) of 0.9964 ± 0.048 mPa·s, a mass density ([2]; 323.15 K, x1 = 0.5) of 919.7 ± 2.9 kg/m3 and a viscosity ([2]; 323.15 K, x1 = 0.5) of 1.017 ± 0.049 mPa·s. For the same compound, the mass density ([2]; 323.15 K, x1 = 0.5995) was 948.6 ± 3 kg/m3, the viscosity ([2]; 323.15 K, x1 = 0.5995) was 1.07 ± 0.051 mPa·s and the mass density ([2]; 323.15 K, x1 = 0.7002) was 977.6 ± 3.1 kg/m3. It also gave a viscosity ([2]; 323.15 K, x1 = 0.7002) of 1.1 ± 0.052 mPa·s, a mass density ([2]; 323.15 K, x1 = 0.7998) of 1006.1 ± 3.1 kg/m3 and a viscosity ([2]; 323.15 K, x1 = 0.7998) of 1.14 ± 0.054 mPa·s. The mass density ([2]; 323.15 K, x1 = 0.9004) was 1037.6 ± 3.2 kg/m3, the viscosity ([2]; 323.15 K, x1 = 0.9004) was 1.219 ± 0.057 mPa·s and the mass density ([2]; 323.15 K, x1 = 1) was 1070 ± 3.4 kg/m3. The viscosity ([2]; 323.15 K, x1 = 1) was 1.289 ± 0.06 mPa·s.
